Literature values, collected in patent US20170326105A1, “MELATONIN-BASED NASAL COMPOSITIONS AND USES THEREOF” (The Lester Smith Medical Research Institute, LLC, priority 2016, published 2017).

- time for plasma levels to return to baseline (after discontinuation of chronic dosing of less than 10 mg/day): ≤ 24 h
- estimated peak blood levels above physiological levels (doses of melatonin 5 mg): 25 times
- time after administration for blood plasma concentration to reach its peak (oral administration): over an hour
Compound: COc1ccc2[nH]cc(CCNC(C)=O)c2c1 [melatonin, N-acetyl-5-methoxy tryptamine]
